In paper PMC8637440, “Structural Modifications Yield Novel Insights Into the Intriguing Pharmacodynamic Potential of Anti-inflammatory Nitro-Fatty Acids” (Frontiers in Pharmacology, 2021):

Legend:
r5LO-wt = target: T1, r5LO-wt (Homo sapiens, UniProt P09917); experiment: Recombinant 5-LO activity assay (5-HETE); type: biochemical
T1 sequence (P09917 1-674): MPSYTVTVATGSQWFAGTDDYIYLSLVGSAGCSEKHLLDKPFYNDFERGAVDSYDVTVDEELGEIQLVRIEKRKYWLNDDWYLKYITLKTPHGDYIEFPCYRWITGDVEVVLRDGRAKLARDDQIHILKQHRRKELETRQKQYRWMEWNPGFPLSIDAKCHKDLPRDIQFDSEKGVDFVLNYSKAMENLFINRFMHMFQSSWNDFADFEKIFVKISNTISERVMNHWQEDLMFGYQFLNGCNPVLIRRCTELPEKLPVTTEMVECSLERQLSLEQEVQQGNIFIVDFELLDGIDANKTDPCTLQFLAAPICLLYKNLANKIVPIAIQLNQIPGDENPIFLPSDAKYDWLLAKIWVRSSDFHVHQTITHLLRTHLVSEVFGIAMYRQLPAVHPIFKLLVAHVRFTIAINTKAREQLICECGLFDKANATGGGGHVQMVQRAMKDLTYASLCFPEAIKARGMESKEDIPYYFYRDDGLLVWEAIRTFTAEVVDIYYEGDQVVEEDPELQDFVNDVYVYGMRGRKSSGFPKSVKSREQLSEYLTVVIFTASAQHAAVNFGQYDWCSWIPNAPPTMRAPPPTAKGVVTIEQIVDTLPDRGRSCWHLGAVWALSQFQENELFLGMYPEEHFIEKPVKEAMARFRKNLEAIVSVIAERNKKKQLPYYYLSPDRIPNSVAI
Protocol: 5-LO activity in intact cells was assayed by measuring LTB4 (leukotriene B4) and 5-HETE (5-hydroxyeicosatetraenoic acid) levels in the PMNL supernatants. Since PMNL preparations (purity >95%) contain eosinophils expressing 15-LO-1 as well as platelets, we also analyzed the effects of NFA on the concomitant formation of […] and 12-(S)-HETE. […] Recombinant 5-LO enzyme activity was assessed by the determination of 5-HETE levels representing a direct product assay. In the cell-based LO activity assays, 5 × 10^6 cells per ml PBS/glucose were transferred to 5 ml glass tubes containing 1 mM CaCl2 and stored on ice. […] Subsequently, the cells were stimulated with calcium ionophore A23187 (2.5 µM) and arachidonic acid (AA, 20 µM) for an additional 10 min at 37°C. Recombinant 5-LO activity assays were carried out using 3 µg r5LO-wt enzyme. The enzyme was diluted in PBS/EDTA/ATP, transferred into 5-ml glass tubes, and stored on ice. […] The samples were then pre-heated at 37°C in a water bath and subsequently stimulated with 1 mM CaCl2 and 20 µM AA for 10 min at 37°C. The reaction was stopped by placing the glass tubes on ice. The supernatants were transferred to 1.5 ml reaction tubes and stored at −80°C before LC-MS (liquid chromatography and mass spectrometry) analysis of LTB4 and HETEs as described in 2.6 at the Institute of Pharmacology, Goethe University, University Hospital, Germany.
The lipid mediators LTB4, hydroxyeicosatetraenoic acids, 5(S)-HETE, 12(S)-HETE, 15(S)-HETE and 20-HETE were analyzed using liquid chromatography tandem-mass spectroscopy (LC-MS/MS). The LC-MS/MS system consisted of a 5500 QTrap mass spectrometer (Sciex, Darmstadt, Germany), operating in negative ESI mode, an Agilent 1200 HPLC system (Agilent, Waldbronn, Germany) and an HTC Pal autosampler (Chromtech, Idstein, Germany).
Suppl. Figure 3: Inhibition of 5-LO derived 5-HETE production by NFA with (A) different carbon chain lengths and (B) different Michael acceptor positions using the r5LO-wt assay. r5LO-wt (3 µg) in PBS/EDTA/ATP buffer was preincubated with the compounds or the vehicle control DMSO (0.1%) for 15 min at 4°C, preheated at 37°C for 30 sec, and subsequently stimulated with 1 mM CaCl 2 and 20 µM AA for another 10 min at 37°C.
5-HETE activity was analyzed by LC-MS. Data are presented as the percent of the control mean ± SD, n = 3–6. AA , arachidonic acid; ATP, adenosine triphosphate; DMSO, dimethyl sulfoxide; EDTA, ethylenediaminetetraacetate; HETE, hydroxyeicosatetraenoic acid; NFA, nitro-fatty acids; PBS, phosphate-buffered saline . […]

HCT-116 cells = experiment: WST-1 cell viability assay, HCT-116; type: cell-based, human; details: for IC50: Homo sapiens, HCT-116; for cytotoxic potency higher compared to 9NOA: HCT-116 and HT-29 cells
Protocol: Cell viability was analyzed with the WST-1 assay based on the cleavage of the stable tetrazolium salt WST-1 by the mitochondrial reductase system. Cells were seeded in the appropriate densities in a clear 96-well plate and settled overnight at 37°C in 5% CO2. The next day, the cells were treated with NFA or the substances of interest (≤0.1% dimethyl sulfoxide [DMSO]) and incubated for 24 or 48 h at 37°C in 5% CO2. Cell viability was analyzed by adding 10 µl WST-1 solution (Roche, Basel, Switzerland) and subsequently incubating the cells at 37°C for another 30–40 min. Absorbance was measured at 450 nm with a control wavelength at 620 nm using a plate reader.
Besides targeting the NF-κB pathway, the anti-tumorigenic effects of NFA can be observed by a reduction of colorectal cancer cell viability. […] Again, the cytotoxic effects of NFA were determined in HCT-116 and HT-29 colorectal cancer cells in the present study. […] HCT-116 cells were treated with increasing concentrations of NFA differing in chain length and Michael acceptor position for 24 h, and cell viability was determined using the WST-1 assay. Due to their prolonged cell division rate and their lack of sensitivity towards NFA ([Kühn et al., 2018]), HT-29 cells were treated for 48 h to gain improved NFA activity.

[1] = 3 µg r5LO-wt, 15 min on ice, 1 mM CaCl2 + 20 µM AA, n.i. = no inhibition observed
[2] = WST-1 cell viability, 24 h, n.i. = no inhibition observed

| Structure (SMILES) | IC50 (r5LO-wt; [1]) | IC50 (HCT-116 cells; [2]) | cytotoxic potency higher compared to 9NOA (HCT-116 cells) | r5LO-wt 5-HETE IC50 (r5LO-wt; [1]) | effect on product formation by recombinant 5-LO (r5LO-wt; at concentrations of >10 µM) | HCT-116 (24 h) IC50 (HCT-116 cells; [2]) |
| --- | --- | --- | --- | --- | --- | --- |
| CCC=C(CCCCCCCC(=O)O)[N+](=O)[O-] [12.9.9, 9-nitro-dodec-9-enoic acid] | 75.5 ± 8.1 µM | 23.1 ± 1.1 µM |  |  |  |  |
| CCCCC=C(CCCCCCCC(=O)O)[N+](=O)[O-] [14.9.9, 9-nitro-tetradec-9-enoic acid] | 17.9 ± 1.6 µM | 16.8 ± 1.1 µM |  |  |  |  |
| CCCCCCC=C(CCCCCCCC(=O)O)[N+](=O)[O-] [16.9.9, 9-nitro-hexadec-9-enoic acid] | 3.3 ± 1.2 µM | 10.5 ± 1.1 µM |  |  |  |  |
| CCCCCCCCCCCCCC=C(CCC(=O)O)[N+](=O)[O-] [18.4.4, 4-nitro-octadec-4-enoic acid] | 0.4 ± 1.2 µM | 18.6 ± 1.1 µM |  |  |  |  |
| CCCCCCCCCCCCC=C(CCCC(=O)O)[N+](=O)[O-] [18.5.5, 5-nitro-octadec-5-enoic acid] | 0.4 ± 1.1 µM | 11.6 ± 1.1 µM |  |  |  |  |
| CCCCCCCCCCCC=C(CCCCC(=O)O)[N+](=O)[O-] [18.6.6, 6-nitro-octadec-6-enoic acid] | 1 ± 1.2 µM | 7.6 ± 1.1 µM |  |  |  |  |
| CCCCCCCCCCCC(=CCCCCC(=O)O)[N+](=O)[O-] [18.6.7, 7-nitro-octadec-6-enoic acid] | 1.1 ± 1.2 µM | 8.1 ± 1.1 µM |  |  |  |  |
| CCCCCCCCCCC=C(CCCCCC(=O)O)[N+](=O)[O-] [18.7.7, 7-nitro-octadec-7-enoic acid] | 0.6 ± 1.3 µM | 2.7 ± 1.1 µM | > 2 fold |  |  |  |
| CCCCCCCCCC=C(CCCCCCC(=O)O)[N+](=O)[O-] [18.8.8, 8-nitro-octadec-8-enoic acid] | 2.2 ± 1.2 µM | 2.1 ± 1.1 µM | > 2 fold |  |  |  |
| CCCCCCCCC=C(CCCCCCCC(=O)O)[N+](=O)[O-] [18.9.9, 9-nitro-octadec-9-enoic acid] | 1.1 ± 1.2 µM | 6.4 ± 1.2 µM |  |  |  |  |
| CCCCCCCC/C=C\CCCCCCCC(=O)O [OA, oleic acid, reference compound] |  |  |  | n.i. | slight inhibitory effect | failed to induce cytotoxic effects and n.i. |

The next lines start with results.

| IC50 (r5LO-wt; [1]) | IC50 (HCT-116 cells; [2]) | Structure (SMILES) | cytotoxic potency higher compared to 9NOA (HCT-116 cells) | r5LO-wt 5-HETE IC50 (r5LO-wt; [1]) | effect on product formation by recombinant 5-LO (r5LO-wt; at concentrations of >10 µM) | HCT-116 (24 h) IC50 (HCT-116 cells; [2]) |
| --- | --- | --- | --- | --- | --- | --- |
| 1.9 ± 1.2 µM | 4.6 ± 1.1 µM | CCCCCCCCCC(=CCCCCCCC(=O)O)[N+](=O)[O-] [18.8.9, 9-nitro-octadec-8-enoic acid] |  |  |  |  |
| 1.6 ± 1.3 µM | 13.5 ± 1.1 µM | CCCCCCCCC(=CCCCCCCCC(=O)O)[N+](=O)[O-] [18.9.10, 10-nitro-octadec-9-enoic acid] |  |  |  |  |
| 1.6 ± 1.3 µM | 13.6 ± 1.1 µM | CCCCCCCC=C(CCCCCCCCC(=O)O)[N+](=O)[O-] [18.10.10, 10-nitro-octadec-10-enoic acid] |  |  |  |  |
| 0.8 ± 1.2 µM | 16 ± 1.1 µM | CCCCCCC=C(CCCCCCCCCC(=O)O)[N+](=O)[O-] [18.11.11, 11-nitro-octadec-11-enoic acid] |  |  |  |  |
| 0.9 ± 1.3 µM | 5.4 ± 1.1 µM | CCCCCCCCCCC=C(CCCCCCCC(=O)O)[N+](=O)[O-] [20.9.9, 9-nitro-eicos-9-enoic acid] |  |  |  |  |
